Measurements as given in US20200345686A1, “COMPOSITIONS AND METHODS FOR TREATING SKIN AND N[…] DISORDERS” (VCP IP HOLDINGS, LLC, LIMITED LIABILITY COMPANY DELAWARE, priority 2019, published 2020).

Legend:
[1] = one study; cited from earlier work
[2] = target: cannabinoid receptor type-2 (CB2) (Homo sapiens, UniProt P34972); conditions: cited from earlier work
[3] = mice; cited from earlier work
[4] = mammals; cited from earlier work
[5] = Tape-strip test of THC absorbance into pig skin after topical application of salve; assay type: in vitro ADME
Experimental: A composition as described herein, e.g., in the form of a salve containing 1000 mg THC and carrier components was tested for its absorbance into skin following topical application to the skin of an animal (pig).
The absorbance testing procedure was performed as follows: the salve/lotion composition was applied topically to an area of the skin of a pig. Approximately 500 mg of the salve/lotion composition was applied to the area of skin using a gloved finger. The composition was applied to the skin by rubbing in a circular motion. The applied composition (salve composition) remained on the skin for different time periods, i.e., 10 minutes, 30 minutes, or 60 minutes, to allow the components of the composition, e.g., THC, to absorb into the skin. At the end of each time period, the area of the skin on which the composition had been applied was contacted with adhesive strips to test for the presence of residual cannabinoids, using an adhesive test tape (strip) method, e.g., as known in the art. (See, e.g., A. L. M. Ruela et al., 2016, BJPS, Vol. 52, No. 3:527-544; S. Zsiko et al., 2019, Sci. Pharm. (Review), Vol. 87, No. 19; doi:10.3390/scipharm87030019, 21 pages). In general, the tape-stripping technique is employed for analysis of penetration of an active or component (e.g., THC) into the stratum corneum. The procedure may be applied using an animal skin model, such as pig skin, e.g., a portion of skin removed from the animal. The procedure involved the sequence removal of cell layers of the stratum corneum by application of pieces (strips) of adhesive tape. The residues of the applied composition or formulation were removed from the skin surface, and the adhesive strip was applied by using pressure to ensure its adhesion to the skin. […]
FIG. 1 illustrates the results of the time course experiment following absorption testing 10 minutes after the composition comprising 1000 mg THC+carrier ingredients was applied to the animal's skin. Absorption or permeation of THC (ppm) per layer of skin (20 skin layers deep) was assessed using adhesive test strips. […]

cannabinoid receptor type-2 (CB2), sequence (P34972 whole entry, species assumed): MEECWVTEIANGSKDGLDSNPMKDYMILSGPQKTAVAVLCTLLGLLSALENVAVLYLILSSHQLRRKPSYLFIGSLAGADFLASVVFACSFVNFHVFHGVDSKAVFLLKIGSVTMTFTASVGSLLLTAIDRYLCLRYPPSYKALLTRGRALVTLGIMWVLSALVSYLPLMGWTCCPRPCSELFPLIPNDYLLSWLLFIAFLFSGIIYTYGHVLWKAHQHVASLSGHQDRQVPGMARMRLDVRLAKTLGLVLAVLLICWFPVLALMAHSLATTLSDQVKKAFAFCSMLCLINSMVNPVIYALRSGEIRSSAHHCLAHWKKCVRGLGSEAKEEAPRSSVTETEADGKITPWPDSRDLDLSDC

SMILES: C=C(C)[C@@H]1CCC(C)=C[C@H]1c1c(O)cc(CCCCC)cc1O [CBD, (−)-trans-cannabidiol]
- relieving pain and reducing inflammation compared with aspirin [1]: more effective than aspirin

SMILES: C=C1CCC=C(C)CCC2C1CC2(C)C (stereo not shown) [Caryophyllene, 4,11,11-trimethyl-8-methylene-bicyclo[7.2.0]undec-4-ene]
- activity at CB2 [2]: selective agonist
- anti-inflammatory effects [3]: significant cannabi-mimetic, anti-inflammatory effects

SMILES: C/C1=C\CC/C(C)=C/CC(C)(C)/C=C/C1 [Humulene]
- anti-inflammatory activity [4]: effects similar to those of dexamethasone

SMILES: CCCCCc1cc(O)c2c(c1)OC(C)(C)[C@@H]1CCC(C)=C[C@@H]21 [THC, Δ^9-tetrahydrocannabinol]
- presence of cannabinoids in the skin layers beneath the stratum corneum ([5]; 5 ppm limit of quantification (LOQ), pig skin tape strips): inability to detect the presence of cannabinoids
- location of THC component in skin ([5]; 60 minutes after topical application, salve containing 1000 mg THC + carrier, pig skin): the majority of the THC component had entered the stratum corneum
- time after topical application at which absorption or penetration of THC into the skin was highest ([5]; salve containing 1000 mg THC + carrier, approx. 500 mg applied to pig skin, 20 tape strips, HPLC): 10 to 30 min
